Assay results published in PubChem BioAssay (NCI).
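Five compound concentrations were applied to cells in 96-well plates for 48 hours; endpoints were derived by simple linear interpolation of the resulting dose-response curve. TGI: total growth inhibition.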

Legend:
Experiment in all cases: growth of human tumour cells (NCI), 48 h
[1] = test system: U251 CNS
[2] = test system: A498 renal
[3] = test system: UACC-62 melanoma
[4] = test system: MDA-MB-435
[5] = test system: BT-549 breast
[6] = test system: NCI-H226 lung
[7] = test system: OVCAR-4 ovarian
[8] = test system: SF-268 CNS
[9] = test system: SK-MEL-2 melanoma
[10] = test system: NCI/ADR-RES ovarian
[11] = test system: HT29 colon
[12] = test system: SN12C renal
[13] = test system: MDA-N
[14] = test system: NCI-H23 lung
[15] = test system: TK-10 renal
[16] = test system: SW-620 colon
[17] = test system: MALME-3M melanoma
[18] = test system: SK-MEL-5 melanoma
[19] = test system: CAKI-1 renal
[20] = test system: RXF 393 renal
[21] = test system: MDA-MB-231 breast
[22] = test system: HOP-62 NSCLC
[23] = test system: PC-3 prostate
[24] = test system: DU-145 prostate
[25] = test system: KM12 colon
[26] = test system: 786-0 renal
[27] = test system: UO-31 renal
[28] = test system: NCI-H460 lung
[29] = test system: OVCAR-5 ovarian
[30] = test system: SNB-19 CNS
[31] = test system: OVCAR-3 ovarian
[32] = test system: HCT-116 colon
[33] = test system: HCC-2998 colon
[34] = test system: OVCAR-8 ovarian
[35] = test system: SNB-75 CNS
[36] = test system: SF-295 CNS
[37] = test system: UACC-257 melanoma
[38] = test system: MOLT-4 leukemia
[39] = test system: COLO 205 colon
[40] = test system: EKVX NSCLC
[41] = test system: SR leukemia
[42] = test system: IGROV1 ovarian
[43] = test system: HL-60(TB) leukemia
[44] = test system: K-562 leukemia
[45] = test system: HS 578T breast
[46] = test system: LOX IMVI melanoma
[47] = test system: NCI-H522 lung
[48] = test system: ACHN renal
[49] = test system: HCT-15 colon
[50] = test system: MCF7 breast
[51] = test system: CCRF-CEM leukemia
[52] = test system: M14 melanoma
[53] = test system: SK-MEL-28 melanoma
[54] = test system: SK-OV-3 ovarian
[55] = test system: RPMI-8226 leukemia
[56] = test system: HOP-92 NSCLC
[57] = test system: T-47D breast
[58] = test system: SF-539 CNS
[59] = test system: A549 NSCLC

NC1=NC(=O)[C@H](CSCc2ccccc2)N1C(=O)OCc1ccccc1
TGI [1]: > 100 µM | TGI [2]: > 100 µM | TGI [3]: > 100 µM | TGI [4]: > 100 µM | TGI [5]: > 100 µM | TGI [6]: > 100 µM | TGI [7]: > 100 µM | TGI [8]: > 100 µM | TGI [9]: > 100 µM | TGI [10]: > 100 µM | TGI [11]: > 100 µM | TGI [12]: > 100 µM | TGI [13]: > 100 µM | TGI [14]: > 100 µM | TGI [15]: > 100 µM | TGI [16]: > 100 µM | TGI [17]: > 100 µM | TGI [18]: > 100 µM | TGI [19]: > 100 µM | TGI [20]: > 100 µM | TGI [21]: > 100 µM | TGI [22]: > 100 µM | TGI [23]: > 100 µM | TGI [24]: > 100 µM | TGI [25]: > 100 µM | TGI [26]: > 100 µM | TGI [27]: > 100 µM | TGI [28]: > 100 µM | TGI [29]: > 100 µM | TGI [30]: > 100 µM | TGI [31]: > 100 µM | TGI [32]: > 100 µM | TGI [33]: > 100 µM | TGI [34]: > 100 µM | TGI [35]: > 100 µM | TGI [36]: > 100 µM | TGI [37]: > 100 µM | TGI [38]: > 100 µM | TGI [39]: > 100 µM | TGI [40]: > 100 µM | TGI [41]: > 100 µM | TGI [42]: > 100 µM | TGI [43]: > 100 µM | TGI [44]: > 100 µM | TGI [45]: > 100 µM | TGI [46]: > 100 µM | TGI [47]: > 100 µM | TGI [48]: > 100 µM | TGI [49]: > 100 µM | TGI [50]: > 100 µM

C1=C(N2CCOCC2)/C(=C2\SC(=Nc3ccccc3)C(=Nc3ccccc3)N2c2ccccc2)CC1
TGI [1]: > 100 µM | TGI [51]: > 100 µM | TGI [2]: > 100 µM | TGI [3]: 48.9 µM | TGI [4]: > 100 µM | TGI [9]: > 100 µM | TGI [10]: > 100 µM | TGI [52]: > 100 µM | TGI [11]: > 100 µM | TGI [12]: > 100 µM | TGI [13]: > 100 µM | TGI [14]: > 100 µM | TGI [17]: > 100 µM | TGI [18]: > 100 µM | TGI [19]: > 100 µM | TGI [21]: > 100 µM | TGI [53]: > 100 µM | TGI [22]: > 100 µM | TGI [23]: > 100 µM | TGI [24]: > 100 µM | TGI [25]: > 100 µM | TGI [28]: > 100 µM | TGI [31]: > 100 µM | TGI [32]: > 100 µM | TGI [34]: > 100 µM | TGI [35]: 65.4 µM | TGI [36]: > 100 µM | TGI [54]: 69 µM | TGI [38]: > 100 µM | TGI [39]: > 100 µM | TGI [41]: > 100 µM | TGI [55]: > 100 µM | TGI [56]: > 100 µM | TGI [42]: > 100 µM | TGI [44]: > 100 µM | TGI [45]: > 100 µM | TGI [57]: > 100 µM | TGI [47]: > 100 µM | TGI [49]: > 100 µM

C[C@H]1ON2CCC[C@@H]2[C@@H]1C(=O)N1C2CC3CCC2(CS1(=O)=O)C3(C)C (some centres not stated)
TGI [1]: > 100 µM | TGI [51]: > 100 µM | TGI [58]: > 100 µM | TGI [2]: > 100 µM | TGI [3]: > 100 µM | TGI [4]: > 100 µM | TGI [6]: > 100 µM | TGI [59]: > 100 µM | TGI [7]: > 100 µM | TGI [8]: > 100 µM | TGI [9]: > 100 µM | TGI [10]: > 100 µM | TGI [52]: > 100 µM | TGI [11]: > 100 µM | TGI [12]: > 100 µM | TGI [13]: > 100 µM | TGI [14]: > 100 µM | TGI [15]: > 100 µM | TGI [16]: > 100 µM | TGI [17]: > 100 µM | TGI [18]: > 100 µM | TGI [19]: > 100 µM | TGI [20]: > 100 µM | TGI [21]: > 100 µM | TGI [53]: > 100 µM | TGI [22]: > 100 µM | TGI [23]: > 100 µM | TGI [24]: > 100 µM | TGI [25]: > 100 µM | TGI [26]: > 100 µM | TGI [28]: > 100 µM | TGI [29]: > 100 µM | TGI [30]: > 100 µM | TGI [31]: > 100 µM | TGI [32]: > 100 µM | TGI [33]: > 100 µM | TGI [34]: > 100 µM | TGI [35]: > 100 µM | TGI [36]: > 100 µM | TGI [54]: > 100 µM | TGI [37]: > 100 µM | TGI [39]: > 100 µM | TGI [40]: > 100 µM | TGI [42]: > 100 µM | TGI [43]: 26.6 µM | TGI [44]: > 100 µM | TGI [45]: > 100 µM | TGI [46]: > 100 µM | TGI [57]: > 100 µM | TGI [47]: > 100 µM | TGI [48]: > 100 µM | TGI [49]: > 100 µM | TGI [50]: > 100 µM

COc1ccc(/C=N/Nc2nc3ccccc3c(=O)n2-c2ccccc2)cc1
TGI [1]: > 100 µM | TGI [51]: > 100 µM | TGI [58]: > 100 µM | TGI [2]: > 100 µM | TGI [3]: > 100 µM | TGI [4]: > 100 µM | TGI [6]: > 100 µM | TGI [59]: > 100 µM | TGI [7]: > 100 µM | TGI [8]: > 100 µM | TGI [9]: > 100 µM | TGI [10]: > 100 µM | TGI [52]: > 100 µM | TGI [11]: > 100 µM | TGI [12]: > 100 µM | TGI [13]: > 100 µM | TGI [14]: > 100 µM | TGI [15]: > 100 µM | TGI [16]: > 100 µM | TGI [17]: > 100 µM | TGI [18]: > 100 µM | TGI [19]: > 100 µM | TGI [20]: > 100 µM | TGI [21]: > 100 µM | TGI [53]: > 100 µM | TGI [22]: > 100 µM | TGI [23]: > 100 µM | TGI [24]: > 100 µM | TGI [25]: > 100 µM | TGI [26]: > 100 µM | TGI [27]: 14.9 µM | TGI [28]: > 100 µM | TGI [29]: > 100 µM | TGI [30]: > 100 µM | TGI [31]: > 100 µM | TGI [32]: > 100 µM | TGI [33]: > 100 µM | TGI [34]: > 100 µM | TGI [35]: > 100 µM | TGI [36]: > 100 µM | TGI [54]: > 100 µM | TGI [37]: > 100 µM | TGI [38]: > 100 µM | TGI [39]: > 100 µM | TGI [40]: > 100 µM | TGI [41]: > 100 µM | TGI [42]: > 100 µM | TGI [43]: > 100 µM | TGI [44]: > 100 µM | TGI [46]: > 100 µM | TGI [57]: > 100 µM | TGI [47]: > 100 µM | TGI [48]: > 100 µM | TGI [49]: > 100 µM | TGI [50]: 40.5 µM
